Experimental data published in article PMC8161687, “Cytosine-5 methylation-directed construction of a Au nanoparticle-based nanosensor for simultaneous detection of multiple DNA methyltransferases at the single-molecule level” (Chemical Science, 2020).

Target: T1, CpG methyltransferase (M.SssI MTase) (Spiroplasma monobiae, UniProt P15840)
T1 construct: gene sssIM
Assay: coupled GlaI / RNase HII cleavage, Cy5 release from AuNP, single-molecule TIRF counting
Assay type: biochemical
Settings: 600 nM hairpin DNA HS1; 320 μM SAM; 100 U/mL M.SssI; NEBuffer 2; 37 °C, 2 h; coupled assay; free nucleoside added, covalent mechanism only cited

T1 sequence (P15840 whole entry): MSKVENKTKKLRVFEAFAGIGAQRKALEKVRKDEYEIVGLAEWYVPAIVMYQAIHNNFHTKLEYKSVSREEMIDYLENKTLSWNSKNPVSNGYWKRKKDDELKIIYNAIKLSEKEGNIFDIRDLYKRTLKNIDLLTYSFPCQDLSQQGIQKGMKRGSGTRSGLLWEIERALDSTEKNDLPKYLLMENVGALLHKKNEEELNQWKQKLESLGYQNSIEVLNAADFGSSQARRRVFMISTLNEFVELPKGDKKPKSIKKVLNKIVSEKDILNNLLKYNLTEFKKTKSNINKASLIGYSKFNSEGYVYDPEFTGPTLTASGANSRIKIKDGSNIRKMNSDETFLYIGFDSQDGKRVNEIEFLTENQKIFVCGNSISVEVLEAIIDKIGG

SMILES: Nc1ncn([C@H]2C[C@H](O)[C@@H](CO)O2)c(=O)n1 [decitabine]
- IC50: 640 nM
